Results from US20130040882A1, “USE OF FIBROBLAST GROWTH FACTOR FRAGMENTS” (NOVARTIS AG, priority 2003, published 2013).
Where “and” joins values, the source holds several entries; their conditions need not be identical. Equal values may be shown once.

Experiments:
[1] = Salmon calcitonin/PTS893 monkey study: haematology; assay type: in vivo, cynomolgus monkeys (Macaca fascicularis);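 further: haematology parameters were measured in blood collected from a peripheral vein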
Protocol: Animals were fasted overnight before blood collection but had free access to water. Blood samples were taken from a peripheral vein. Standard haematology and clinical chemistry analysis were performed once during pretest and at the end of the treatment period. Blood samples were collected from each animal at the same intervals as described for the clinical chemistry investigations. The serum samples were deep-frozen (approximately −80° C.) until analyses for hormone determination.

[2] = Salmon calcitonin/PTS893 monkey study: in vivo examinations (mortality, food consumption, clinical observations, body weight); design: species or system cynomolgus monkeys (Macaca fascicularis)
Protocol: Solvent was used as vehicle for the control group.
The animals used in this analysis were cynomolgus monkeys (Macaca fascicularis), supplied by Centre de Recherches Primatologiques, Port Louis, Mauritius. Two animals were used per group and sex. […] Animals were examined daily for mortality, food consumption and clinical observations. Body weight was recorded once per week.
In vivo examinations. No significant histopathological changes were observed.

[3] = Salmon calcitonin/PTS893 monkey study: histopathology incl. osteonectin, osteopontin and osteocalcin staining of bone; assay type: in vivo, cynomolgus monkeys (Macaca fascicularis); conditions: females
Protocol: Animals were killed by deep anaesthesia induced by intravenous injection of Pentothal®, followed by exsanguinations. All relevant tissues were sampled for histopathology and gene expression profiling. The following tissue samples were processed for analysis: liver, kidney, pituitary, muscle, bone, duodenum, spleen and trachea. Samples for histopathology were fixed in phosphate-buffered 10% formalin. Bone demineralization was performed with 10% formic acid. Tissue samples were embedded in Paraplast® and sectioned at 4 microns, for staining with haematoxylin and eosin. […] All selected tissues for gene expression profiling were examined histopathologically.
Bone sections were stained for osteonectin, osteopontin and osteocalcin and were evaluated histopathologically. Histomorphometry of the bone tissue was performed regarding parameters for bone resorption and synthesis (osteoid formation).

[4] = Salmon calcitonin/PTS893 monkey study: urinalysis; conditions: urine
[5] = female monkeys, day 13 of dosing
[6] = female monkeys, day −8 relative to start of dosing
[7] = male monkeys, day −6 relative to start of dosing

CC(C)C[C@H](NC(=O)[C@H](CCCCN)NC(=O)CNC(=O)[C@H](CC(C)C)NC(=O)[C@@H](NC(=O)[C@@H]1CSSC[C@H](N)C(=O)N[C@@H](CO)C(=O)N[C@@H](CC(N)=O)C(=O)N[C@@H](CC(C)C)C(=O)N[C@@H](CO)C(=O)N[C@@H]([C@@H](C)O)C(=O)N1)C(C)C)C(=O)N[C@@H](CO)C(=O)N[C@@H](CCC(N)=O)C(=O)N[C@@H](CCC(=O)O)C(=O)N[C@@H](CC(C)C)C(=O)N[C@@H](Cc1c[nH]cn1)C(=O)N[C@@H](CCCCN)C(=O)N[C@@H](CC(C)C)C(=O)N[C@@H](CCC(N)=O)C(=O)N[C@H](C(=O)N[C@@H](Cc1ccc(O)cc1)C(=O)N1CCC[C@H]1C(=O)N[C@@H](CCCNC(=N)N)C(=O)N[C@H](C(=O)N[C@@H](CC(N)=O)C(=O)N[C@H](C(=O)NCC(=O)N[C@@H](CO)C(=O)NCC(=O)N[C@H](C(=O)N1CCC[C@H]1C(N)=O)[C@@H](C)O)[C@@H](C)O)[C@@H](C)O)[C@@H](C)O [salmon calcitonin]
Haematology L ([1]; females, d7): 4.61 pg/ml and 6.21 pg/ml | Haematology M ([1]; females, d7): 0.63 nmol/l and 0.82 nmol/l | Haematology MCH ([1]; females, d7): 18.6 ng/ml and 19.4 ng/ml | Haematology MCHC ([1]; females, d7): 29.0 pg/ml and 28.7 pg/ml | Haematology PCV ([1]; females, d7): 0.40 mU/l and 0.44 mU/l | Haematology PLAT ([1]; females, d7): 594 nmol/l and 356 nmol/l | Haematology RBC ([1]; females, d7): 6.2 nmol/l and 6.6 nmol/l | Haematology M ([1]; females, d13): 0.69 nmol/l and 0.39 nmol/l | Haematology MCH ([1]; females, d13): 19.5 ng/ml | Haematology MCHC ([1]; females, d13): 30.3 pg/ml and 29.9 pg/ml | Haematology N ([1]; females, d13): 5.41 nmol/l and 6.16 nmol/l | Haematology PCV ([1]; females, d13): 0.33 mU/l and 0.37 mU/l | Haematology PLAT ([1]; females, d13): 451 nmol/l and 229 nmol/l | Haematology RBC ([1]; females, d13): 5.2 nmol/l and 5.7 nmol/l | Haematology E ([1]; females, d−8 (before dosing)): 0.03 mUI/l | Haematology L ([1]; females, d−8 (before dosing)): 3.26 pg/ml and 4.79 pg/ml | Haematology M ([1]; females, d−8 (before dosing)): 0.25 nmol/l and 0.30 nmol/l | Haematology MCH ([1]; females, d−8 (before dosing)): 19.1 ng/ml and 19.8 ng/ml | Haematology MCHC ([1]; females, d−8 (before dosing)): 31.2 pg/ml and 30.6 pg/ml | Haematology N ([1]; females, d−8 (before dosing)): 3.45 nmol/l and 3.13 nmol/l | Haematology PCV ([1]; females, d−8 (before dosing)): 0.40 mU/l and 0.45 mU/l | Haematology PLAT ([1]; females, d−8 (before dosing)): 549 nmol/l and 304 nmol/l | Haematology RBC ([1]; females, d−8 (before dosing)): 6.5 nmol/l and 7.0 nmol/l | Haematology B ([1]; males, d7): 0.04 G/l | Haematology E ([1]; males, d7): 0.10 G/l and 0.09 G/l | Haematology HB ([1]; males, d7): 11.7 g/dl and 11.5 g/dl | Haematology L ([1]; males, d7): 6.79 G/l and 5.57 G/l | Haematology M ([1]; males, d7): 0.73 G/l and 0.45 G/l | Haematology MCH ([1]; males, d7): 19.9 pg and 19.2 pg | Haematology MCHC ([1]; males, d7): 30.3 g/dl and 31.3 g/dl | Haematology MCV ([1]; males, d7): 66 fl and 62 fl | Haematology N ([1]; males, d7): 4.11 G/l and 3.31 G/l | Haematology PCV ([1]; males, d7): 0.39 l/l and 0.37 l/l | Haematology PLAT ([1]; males, d7): 396 G/l and 330 G/l | Haematology RBC ([1]; males, d7): 5.9 T/l and 6.0 T/l | Haematology WBC ([1]; males, d7): 11.8 G/l and 9.5 G/l | Haematology B ([1]; males, d13): 0.03 G/l | Haematology HB ([1]; males, d13): 11.2 g/dl and 10.3 g/dl | Haematology L ([1]; males, d13): 5.38 G/l and 4.92 G/l | Haematology M ([1]; males, d13): 0.57 G/l and 0.76 G/l | Haematology MCH ([1]; males, d13): 20.2 pg and 19.2 pg | Haematology MCHC ([1]; males, d13): 29.0 g/dl and 28.7 g/dl | Haematology MCV ([1]; males, d13): 70 fl and 67 fl | Haematology N ([1]; males, d13): 1.90 G/l and 3.04 G/l | Haematology PCV ([1]; males, d13): 0.39 l/l and 0.36 l/l | Haematology PLAT ([1]; males, d13): 302 G/l and 389 G/l | Haematology RBC ([1]; males, d13): 5.6 T/l and 5.4 T/l | Haematology WBC ([1]; males, d13): 8.0 G/l and 8.8 G/l | Haematology HB ([1]; males, d−6 (before dosing)): 12.6 g/dl and 13.6 g/dl | Haematology L ([1]; males, d−6 (before dosing)): 4.00 G/l and 6.55 G/l | Haematology MCH ([1]; males, d−6 (before dosing)): 20.2 pg and 19.7 pg | Haematology MCHC ([1]; males, d−6 (before dosing)): 31.4 g/dl and 32.0 g/dl | Haematology MCV ([1]; males, d−6 (before dosing)): 64 fl and 62 fl | Haematology N ([1]; males, d−6 (before dosing)): 3.36 G/l and 3.93 G/l | Haematology PCV ([1]; males, d−6 (before dosing)): 0.40 l/l and 0.43 l/l | Haematology PLAT ([1]; males, d−6 (before dosing)): 351 G/l and 247 G/l | Haematology RBC ([1]; males, d−6 (before dosing)): 6.3 T/l and 6.9 T/l | Haematology WBC ([1]; males, d−6 (before dosing)): 7.7 G/l and 11.5 G/l | Food consumption ([2]; 50 μg/animal/day sc, two weeks): decrease | Signs of toxicity ([2]; 50 μg/animal/day sc, two weeks): no signs of toxicity | Food Consumption, Avg., Both animals ([2]; males, average of both animals of the group): 72.9 | Food Consumption, Avg. ([2]; males, average per individual animal): 70.8 and 75.0 | Food Consumption, Day 1 ([2]; males, day 1 of SC dosing, individual animals): 75 and 50 | Food Consumption, Day 2 ([2]; males, day 2 of SC dosing, individual animals): 25 | Food Consumption, Day 3 ([2]; males, day 3 of SC dosing, individual animals): 50 and 100 | Food Consumption, Day 4 ([2]; males, day 4 of SC dosing, individual animals): 100 and 75 | Food Consumption, Day 5 ([2]; males, day 5 of SC dosing, individual animals): 100 | Food Consumption, Day 6 ([2]; males, day 6 of SC dosing, individual animals): 75 | Food Consumption, Day 7 ([2]; males, day 7 of SC dosing, individual animals): 100 and 75 | Food Consumption, Day 8 ([2]; males, day 8 of SC dosing, individual animals): 100 and 75 | Food Consumption, Day 9 ([2]; males, day 9 of SC dosing, individual animals): 100 | Food Consumption, Day 10 ([2]; males, day 10 of SC dosing, individual animals): 100 | Food Consumption, Day 11 ([2]; males, day 11 of SC dosing, individual animals): 75 and 100 | Food Consumption, Day 12 ([2]; males, day 12 of SC dosing, individual animals): 75 | Food Consumption, Day 13 ([2]; males, day 13 of SC dosing, individual animals): 25 | Food Consumption, Day 14 ([2]; males, day 14 of SC dosing, individual animals): 75 | Food Consumption, Day −1 ([2]; males, day −1 (before dosing), individual animals): 75 | Food Consumption, Day −2 ([2]; males, day −2 (before dosing), individual animals): 100 | Food Consumption, Day −3 ([2]; males, day −3 (before dosing), individual animals): 75 | Food Consumption, Day −4 ([2]; males, day −4 (before dosing), individual animals): 50 and 75 | Food Consumption, Day −5 ([2]; males, day −5 (before dosing), individual animals): 75 | Food Consumption, Day −6 ([2]; males, day −6 (before dosing), individual animals): 50 | Inflammatory and regenerative changes in the kidneys [3]: slightly higher incidence | CREAT [4, 5]: 4800 µmol/L and 4200 µmol/L | Ca2+ [4, 5]: 17.55 mmol/L and 12.70 mmol/L | Cl− [4, 5]: 63 mmol/L and 65 mmol/L | I.PHOS [4, 5]: 5.1 mmol/L and 5.8 mmol/L | K+ [4, 5]: 53 mmol/L and 57 mmol/L | Mg2+ [4, 5]: 5.40 mmol/L and 4.85 mmol/L | NAG [4, 5]: 2.8 IU/l and 2.7 IU/l | Na+ [4, 5]: 40 mmol/L and 32 mmol/L | VOLUME [4, 5]: 67 mL and 49 mL | CREAT ([4]; female monkeys, day −7 relative to start of dosing): 6920 µmol/L and 13380 µmol/L | CREAT [4, 6]: 10780 µmol/L and 11260 µmol/L | Ca2+ [4, 6]: 3.00 mmol/L and 3.50 mmol/L | K+ [4, 6]: 104 mmol/L and 172 mmol/L | Mg2+ [4, 6]: 3.35 mmol/L and 3.80 mmol/L | Na+ [4, 6]: 98 mmol/L and 156 mmol/L | CREAT ([4]; male monkeys, day 13 of dosing): 4620 µmol/L and 4400 µmol/L | Ca2+ ([4]; male monkeys, day 13 of dosing): 18.25 mmol/L and 23.40 mmol/L | Cl− ([4]; male monkeys, day 13 of dosing): 55 mmol/L and 68 mmol/L | I.PHOS ([4]; male monkeys, day 13 of dosing): 2.50 mmol/L and 3.00 mmol/L | K+ ([4]; male monkeys, day 13 of dosing): 78 mmol/L and 76 mmol/L | Mg2+ ([4]; male monkeys, day 13 of dosing): 7.05 mmol/L and 9.80 mmol/L | Na+ ([4]; male monkeys, day 13 of dosing): 14 mmol/L and 15 mmol/L | VOLUME ([4]; male monkeys, day 13 of dosing): 68 mL and 54 mL | I.PHOS [4, 7]: 4.35 mmol/L and 5.33 mmol/L | LDH [4, 7]: 9.0 IU/L and 13.0 IU/L | NAG [4, 7]: 2.7 IU/l and 4.2 IU/l | VOLUME [4, 7]: 62 mL and 37 mL
